Data on 50 compounds can be found in patent US8883789B2, “Piperazine derivatives and their use as positive allosteric modulators of mGluR5 receptors” (Boehringer Ingelheim International GmbH, priority 2011, dated 2014).

T1 sequence (P41594 21-1212): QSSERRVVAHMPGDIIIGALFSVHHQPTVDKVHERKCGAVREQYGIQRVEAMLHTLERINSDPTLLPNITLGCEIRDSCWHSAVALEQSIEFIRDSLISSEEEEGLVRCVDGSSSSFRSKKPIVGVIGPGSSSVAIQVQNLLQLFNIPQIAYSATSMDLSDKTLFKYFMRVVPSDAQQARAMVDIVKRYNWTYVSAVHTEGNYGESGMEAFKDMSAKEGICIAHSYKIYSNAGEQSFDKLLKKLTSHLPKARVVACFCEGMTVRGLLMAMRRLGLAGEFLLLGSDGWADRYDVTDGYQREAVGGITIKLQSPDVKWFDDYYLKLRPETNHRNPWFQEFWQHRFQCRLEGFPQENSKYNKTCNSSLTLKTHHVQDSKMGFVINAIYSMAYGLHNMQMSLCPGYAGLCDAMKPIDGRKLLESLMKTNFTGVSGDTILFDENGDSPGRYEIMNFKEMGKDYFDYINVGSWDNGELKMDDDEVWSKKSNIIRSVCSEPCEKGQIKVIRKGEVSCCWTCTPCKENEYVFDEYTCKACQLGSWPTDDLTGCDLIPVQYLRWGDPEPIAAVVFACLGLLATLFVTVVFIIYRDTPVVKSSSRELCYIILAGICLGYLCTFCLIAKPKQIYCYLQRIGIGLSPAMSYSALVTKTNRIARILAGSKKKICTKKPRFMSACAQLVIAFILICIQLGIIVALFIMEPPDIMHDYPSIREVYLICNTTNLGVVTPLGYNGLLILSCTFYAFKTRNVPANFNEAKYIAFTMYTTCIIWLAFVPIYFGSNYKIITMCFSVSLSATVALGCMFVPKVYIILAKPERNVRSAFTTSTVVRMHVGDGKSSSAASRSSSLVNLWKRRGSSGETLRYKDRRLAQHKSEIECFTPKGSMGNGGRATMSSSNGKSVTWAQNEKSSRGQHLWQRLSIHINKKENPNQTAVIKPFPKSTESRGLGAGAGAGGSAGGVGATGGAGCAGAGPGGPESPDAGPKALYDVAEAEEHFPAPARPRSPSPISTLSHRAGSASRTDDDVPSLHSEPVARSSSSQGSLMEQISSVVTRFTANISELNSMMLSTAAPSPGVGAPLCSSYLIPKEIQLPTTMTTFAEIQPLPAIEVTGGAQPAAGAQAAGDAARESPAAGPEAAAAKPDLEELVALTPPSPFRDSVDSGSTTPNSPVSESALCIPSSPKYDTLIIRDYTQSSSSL

This test has as its target T1, human recombinant mGluR5 (Homo sapiens, UniProt P41594).
T1 construct: expressed in transfected cells; hygromycin and geneticin selection
Briefly: positive modulation of mGluR5, calcium based FLIPR assay. The note with it: HEK 293 cell line expressing human recombinant mGluR5; Ca2+ peak height after glutamate at approximately 5% basal stimulation; nonlinear regression. On the procedure: The positive modulation of mGluR5 is measured in a HEK 293 cell line expressing human recombinant mGluR5 and is detected with calcium based FLIPR assay. The cells are cultured with DMEM supplemented with 10% FCS, 2 μg/mL tetracycline, 100 μg/mL hygromycin and 500 μg/mL geneticin. The cell culture media is exchanged for tetracycline-free cell culture media 3-7 days before the assay. One day before the assay the cell culture medium is exchanged to DMEM without glutamine and phenol red and supplemented with 10% FCS, 100 μg/mL hygromycin and 500 μg/mL geneticin. On the assay day, the medium of the subconfluent cultures is removed and the cells are detached by addition of 2.5 ml EDTA (0.02%) per 175 cm2 culture flask for 1 minute. The cells are resuspend in Ringer solution (140 mM NaCl, 5 mM KCl, 2.5 mM CaCl2, 1.5 mM MgCl2, 5 mM Glucose, 10 mM Hepes; adjusted to pH 7.4 with NaOH), pooled and Ringer solution added to adjust the volume to 50 mL. The cell suspension is centrifuged for […] at 1500 U/min (425 g). The supernatant is removed and the cells washed a second time with 50 ml fresh Ringer solution and centrifuged again as before. The supernatant is again removed and the pellet resuspended in Ringer solution to 1,000,000 cells/ml (1×10^6 cells/mL). The cells are plated onto BD BioCoat Poly-D-Lysine 384 well plates (20.000 cells/well; 20 μl/well). The lid covered plates are then incubated until use at 37° C./10% CO2. For dye loading, 20 μl of Calcium-4 assay kit solution (prepared according to the manufacturer's description in Ringer solution) are added to the cells and the plates are incubated for 80 min 37° C. and then 10 min at room temperature.
Controls, Compound Dilution and Assay Execution:
Each assay plate contained wells with “high” and “low” controls:
Low controls 1% DMSO/ringer solution+basal glutamate activation (defined as 100% CTL).
High controls 10 μM CDPPB+basal glutamate activation (defined as 200% CTL).
Test compounds are dissolved and diluted in DMSO to 100-fold the desired concentrations. In a second step, the compounds are diluted in Ringer solution such that the compounds are 4-fold more concentrated than the desired final assay concentration. The final DMSO concentration was 1%.
20 μl of each compound solution are then transferred to the assay plate and the Ca2+ kinetic is measured to determine any intrinsic compound activity. After 5 min incubation in the FLIPR device, the second stimulation with 20 μl of glutamate in Ringer solution (glutamate concentration adjusted to approximately 5% basal stimulation of the maximal possible glutamate effect) is added and the kinetic Ca2+ response of the wells was measured for the modulation effect.
The peak height of the Ca release related fluorescence signal (9-66) is used for the EC50.
The EC50 of the modulation is calculated over a nonlinear regression with GraphPad Prism (Table 1).
What is called EC50 is the concentration that produces a half-maximal response. In the case of `CC1(C)CN(C(=O)c2cccc(C(F)(F)F)c2)CCN1C(=O)c1nnn(-c2ccccc2)n1` [Example 166], the half-maximal effective concentration (EC50) came to 15 nM.
The value for `CC1(C)CN(C(=O)c2csc(C(F)(F)F)n2)CCN1C(=O)c1ncn(-c2ccccc2)n1` [Example 152] was 291 nM; that for `COc1cccc(C(=O)N2CCN(C(=O)c3ncn(-c4cccc(Br)c4)n3)CC2C)n1` (centres unmarked) [Example 245] was 357 nM.
With `CC1(C)CN(C(=O)c2cccc(-c3ccncc3)n2)CCN1C(=O)c1ncn(-c2ccccc2)n1` [Example 111], the concentration for a half-maximal effect (EC50) amounted to 215 nM.
In the case of `COc1cccc(C(=O)N2CCN(C(=O)c3nnn(-c4ccc(F)cc4)n3)C(C)(C)C2)n1` [Example 200], the half-maximal effective concentration (EC50) was 132 nM.
The result for `CC1(C)CN(C(=O)c2cccc(C3(F)COC3)c2)CCN1C(=O)c1ncn(-c2cccc(Cl)c2)n1` [Example 23] reads 58 nM; that for `Cc1cc(C(=O)N2CCN(C(=O)c3ncn(-c4cccc(Cl)c4)n3)C(C)(C)C2)ccc1F` [Example 64], 262 nM.
As for `CC1(C)CN(C(=O)c2cc(Cl)cc(Br)c2)CCN1C(=O)c1ncn(-c2ccccc2)n1` [Example 125], the EC50 amounted to 83 nM.
As to `COc1nc(C(=O)N2CCN(C(=O)c3ncn(-c4ccccc4)n3)C(C)(C)C2)cc2ccccc12` [Example 97], the EC50 worked out at 25 nM.
For `CC1(C)CN(C(=O)c2cc3ccccc3c(OC3CCCC3)n2)CCN1C(=O)c1ncn(-c2ccccc2)n1` [Example 115], the concentration giving a half-maximal response (EC50) worked out at 158 nM.
For the compound `COc1ccc2c(OC)nc(C(=O)N3CCN(C(=O)c4ncn(-c5cccc(Cl)c5)n4)C(C)(C)C3)cc2c1` [Example 31], the concentration giving a half-maximal response (EC50) turned out to be 160 nM.
For the compound `CC1(C)CN(C(=O)c2cc3nccc(-c4ccccc4)n3n2)CCN1C(=O)c1ncn(-c2cccc(Cl)c2)n1` [Example 67], the concentration giving a half-maximal response (EC50) was 29 nM.
As to `COCCOc1nc(C(=O)N2CCN(C(=O)c3ncn(-c4cccc(Cl)c4)n3)C(C)(C)C2)cc2ccccc12` [Example 34], the half-maximal effective concentration (EC50) is 221 nM.
As for `CC1(C)CN(C(=O)c2cc(Br)c(Br)o2)CCN1C(=O)c1ncn(-c2cccc(F)c2)n1` [Example 175], the 50% effective concentration (EC50) was determined as 104 nM.
For the compound `CC1CN(C(=O)c2ccc(Cl)s2)CCN1C(=O)c1ncn(-c2cccc(Cl)c2)n1` (centres unmarked) [Example 273], the concentration for a half-maximal effect (EC50) was 1320 nM.
Take `CC1(C)CN(C(=O)c2cc(Cl)c(F)c(Cl)c2)CCN1C(=O)c1ncn(-c2ccccc2)n1` [Example 156]: the EC50 came to 232 nM.
As for `COc1cccc(C(=O)N2CCN(C(=O)c3ncn(-c4cccc(C)c4)n3)C(C)C2)n1` (centres unmarked) [Example 296, [4-(6-Methoxy-pyridine-2-carbonyl)-2-methyl-piperazin-1-yl]-(1-m-tolyl-1H-[1,2,4]-triazol-3-yl)-methanone], the concentration for a half-maximal effect (EC50) was found to be 269 nM.
With `Cn1nc(C(=O)N2CCN(C(=O)c3ncn(-c4cccc(Cl)c4)n3)C(C)(C)C2)c2ccccc21` [Example 77], the 50% effective concentration (EC50) is 181 nM.
In the case of `COc1ccc(C(=O)N2CCN(C(=O)c3ncn(-c4ccccc4)n3)C(C)(C)C2)s1` [Example 119], the EC50 worked out at 695 nM.
On to `COc1cccc(C(=O)N2CCN(C(=O)c3ncn(-c4cccc(Br)c4)n3)C(C)C2)n1` (centres unmarked) [Example 299], for which the EC50 worked out at 376 nM.
Consider `CC1(C)CN(C(=O)c2cc(Cl)ccc2F)CCN1C(=O)c1ncn(-c2ccccc2)n1` [Example 155], for which the EC50 amounted to 134 nM.
The result for `COc1cc(Cl)cc(C(=O)N2CCN(C(=O)c3ncn(-c4cccc(Cl)c4)n3)C(C)(C)C2)n1` [Example 17] reads 45 nM; that for `CC1CN(C(=O)c2ncn(-c3cccc(Cl)c3)n2)CCN1C(=O)c1ccc2c(c1)nc(CC1CCCC1)n2C` (centres unmarked) [Example 229], 512 nM.
The result for `CC1(C)CN(C(=O)c2cccc(C#N)n2)CCN1C(=O)c1ncn(-c2cccc(Cl)c2)n1` [Example 33] reads 203 nM.
Take `CC1(C)CN(C(=O)c2cc(C(F)(F)F)ccn2)CCN1C(=O)c1ncn(-c2cccc(Cl)c2)n1` [Example 89]: the half-maximal effective concentration (EC50) is 168 nM.
The value for `COCc1c(C(=O)N2CCN(C(=O)c3ncn(-c4cccc(Cl)c4)n3)CC2C)oc2ccccc12` (centres unmarked) [Example 217] was 1540 nM.
`CC1(C)CN(C(=O)c2cccc(C(F)F)c2)CCN1C(=O)c1ncn(-c2ccccc2)n1` [Example 135]: the 50% effective concentration (EC50) was 47 nM.
Consider `CC1(C)CN(C(=O)c2c(Cl)nc3sccn23)CCN1C(=O)c1ncn(-c2cccc(Cl)c2)n1` [Example 63], for which the 50% effective concentration (EC50) turned out to be 89 nM.
In the case of `CCOc1cccc(C(=O)N2CCN(C(=O)c3ncn(-c4cccc(Cl)c4)n3)C(C)(C)C2)n1` [Example 62], the EC50 came to 869 nM.
The result for `Cc1cccc(-n2cnc(C(=O)N3CCN(C(=O)c4c(C)oc5ccccc45)CC3(C)C)n2)c1` [Example 10] reads 95 nM; that for `COc1cccc(C(=O)N2CCN(C(=O)c3ncn(-c4cc(F)ccc4F)n3)C(C)(C)C2)n1` [Example 197, [1-(2,5-Difluoro-phenyl)-1H-[1,2,4]triazol-3-yl]-[4-(6-methoxy-pyridine-2-carbonyl)-2,2-dimethyl-piperazin-1-yl]-methanone], 149 nM.
On to `Cc1cccc(-n2cnc(C(=O)N3CCN(C(=O)c4cc(Br)c(Br)o4)[C@@H](C)C3)n2)c1` [Example 255, (S)-[4-(4,5-Dibromo-furan-2-carbonyl)-3-methyl-piperazin-1-yl]-(1-m-tolyl-1H-[1,2,4]triazol-3-yl)-methanone], for which the EC50 was found to be 152 nM.
The result for `CC1(C)CN(C(=O)c2cccc(-c3cnco3)c2)CCN1C(=O)c1ncn(-c2ccccc2)n1` [Example 127] reads 296 nM.
The value for `CC(C)c1ccc(C(=O)N2CCN(C(=O)c3ncn(-c4cccc(Cl)c4)n3)C(C)(C)C2)cc1` [Example 61] was 96 nM; that for `COc1nc(C(=O)N2CCN(C(=O)c3ncn(-c4ccccc4)n3)C(C)(C)C2)cc2cc(F)c(F)cc12` [Example 148] was 113 nM; that for `CC1(C)CN(C(=O)c2coc(C3CC3)n2)CCN1C(=O)c1ncn(-c2ccccc2)n1` [Example 140] was 661 nM.
As to `COc1cc(C(=O)N2CCN(C(=O)c3ncn(-c4cccc(C)c4)n3)C(C)C2)ccc1C` (centres unmarked) [Example 288], the EC50 worked out at 372 nM.
Consider `CC1(C)CN(C(=O)c2cc(Br)c(Br)o2)CCN1C(=O)c1ncn(-c2cccc(Cl)c2)n1` [Example 25], for which the EC50 is 62 nM.
Turning to `COc1cccc(C(=O)N2CCN(C(=O)c3ncn(-c4cccc(Cl)c4)n3)CC2C)n1` (centres unmarked) [Example 211], the concentration for a half-maximal effect (EC50) was found to be 264 nM.
Take `Cc1cc2cc(C(=O)N3CCN(C(=O)c4ncn(-c5ccccc5)n4)C(C)(C)C3)ccc2[nH]1` [Example 142]: the concentration giving a half-maximal response (EC50) is 122 nM.
With `COc1cccc(C(=O)N2CCN(C(=O)c3ncn(-c4ccc(C)c(F)c4)n3)C(C)(C)C2)n1` [Example 159], the concentration for a half-maximal effect (EC50) came to 693 nM.
For `CC1(C)CN(C(=O)c2cccc(C3CC3)n2)CCN1C(=O)c1nnn(-c2cccc(F)c2)n1` [Example 185], the concentration giving a half-maximal response (EC50) is 36 nM.
The result for `CC1(C)CN(C(=O)c2ccnc(C(F)(F)F)c2)CCN1C(=O)c1ncn(-c2cccc(Cl)c2)n1` [Example 88] reads 375 nM; that for `Cc1cccc(-n2cnc(C(=O)N3CCN(C(=O)c4cccc(Cl)c4)CC3(C)C)n2)c1` [Example 188], 33 nM.
For the compound `CC1CN(C(=O)c2ncn(-c3cccc(Cl)c3)n2)CCN1C(=O)c1cc(Cl)c2c(c1)OCCO2` (centres unmarked) [Example 221], the EC50 turned out to be 174 nM.
The value for `COc1cccc(C(=O)N2CCN(C(=O)c3ncn(-c4cccc(Cl)c4)n3)[C@H](C)C2)n1` [Example 301, (R)-{4-[1-(3-Chloro-phenyl)-1H-[1,2,4]triazole-3-carbonyl]-3-methyl-piperazin-1-yl}-(6-methoxy-pyridin-2-yl)-methanone] was 162 nM.
Regarding `Cc1c(C(=O)N2CCN(C(=O)c3ncn(-c4cccc(Cl)c4)n3)C(C)(C)C2)oc2ccccc12` [Example 45], the EC50 amounted to 54 nM.
Regarding `COc1cccc(C(=O)N2CCN(C(=O)c3ncn(-c4cccc(Cl)c4)n3)C(C)(C)C2)n1` [Example 18], the EC50 is 48 nM.
As for `CC1(C)CN(C(=O)c2cncc(C(F)(F)F)n2)CCN1C(=O)c1ncn(-c2cccc(Cl)c2)n1` [Example 49], the EC50 is 222 nM.
With `Cc1cc(Cl)cc(C(=O)N2CCN(C(=O)c3ncn(-c4cccc(Cl)c4)n3)C(C)(C)C2)n1` [Example 36], the EC50 came to 383 nM.
